“And” between values parts separate entries of the source, which are not always exact repeats. Equal entries are not always repeated.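 Dose response: 5 concentrations. Exposure: 48 h. Format: 96-well plates. Endpoint: linear interpolation; highest concentration if not reached. GI50: concentration for 50% inhibition of growth.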 The source made the active and inactive calls. Rule as the data show it: active = GI50 up to about 1.1 µM and inactive = higher.
Assays:
Test in all cases: NCI tumour cell line growth inhibition, 48 h
DLD-1 = tested on: DLD-1
MOLT-4 = tested on: MOLT-4
SK-MEL-28 = tested on: SK-MEL-28
SF-295 = tested on: SF-295
SNB-75 = tested on: SNB-75
RXF 393 = tested on: RXF 393
MDA-MB-435 = tested on: MDA-MB-435
SNB-19 = tested on: SNB-19
HOP-92 = tested on: HOP-92
U-251 = tested on: U-251
SW-620 = tested on: SW-620
NCI-H226 = tested on: NCI-H226
OVCAR-5 = tested on: OVCAR-5
DU-145 = tested on: DU-145
NCI-H23 = tested on: NCI-H23
BT-549 = tested on: BT-549
MCF7 = tested on: MCF7
M14 = tested on: M14
Hs-578T = tested on: Hs-578T
T47D = tested on: T47D

SMILES: COc1ccc2nc3ccccc3c(NCCCCN(C)CCCl)c2c1
- GI50 (DLD-1): 47.1 nM (active)
- GI50 (MOLT-4): < 10 nM (active)
- GI50 (SK-MEL-28): 367 nM (active)
- GI50 (SF-295): 65.2 nM (active)
- GI50 (SNB-75): 122 nM (active)
- GI50 (RXF 393): 91.4 nM (active)
- GI50 (MDA-MB-435): 78.3 nM (active)
- GI50 (SNB-19): 191 nM (active)
- GI50 (HOP-92): 60.4 nM (active)
- GI50 (U-251): 34.4 nM (active)
- GI50 (SW-620): 15.1 nM (active)
- GI50 (NCI-H226): 69.2 nM (active)
- GI50 (OVCAR-5): 186 nM (active)
- GI50 (DU-145): 53.7 nM (active)
- GI50 (NCI-H23): 51.3 nM (active)
- GI50 (BT-549): < 10 nM (active)
- GI50 (MCF7): < 10 nM (active)
- GI50 (M14): 71.1 nM (active)

SMILES: COc1cc2c(c(OC)c1OC)-c1ccc(SC)c(=O)cc1[C@@H](NC(=O)C(F)(F)F)CC2
- GI50 (DLD-1): < 10 nM (active)
- GI50 (MOLT-4): < 10 nM (active)
- GI50 (SK-MEL-28): 766 nM (active)
- GI50 (SF-295): < 10 nM (active)
- GI50 (SNB-75): 19 nM (active)
- GI50 (RXF 393): < 10 nM (active)
- GI50 (MDA-MB-435): < 10 nM (active)
- GI50 (SNB-19): < 10 nM (active)
- GI50 (HOP-92): < 10 nM (active)
- GI50 (U-251): < 10 nM (active)
- GI50 (SW-620): < 10 nM (active)
- GI50 (Hs-578T): < 10 nM (active)
- GI50 (NCI-H226): 199 nM (active)
- GI50 (OVCAR-5): 259 nM (active)
- GI50 (T47D): > 60.8 µM (inactive)
- GI50 (DU-145): < 10 nM (active)
- GI50 (NCI-H23): < 10 nM (active)
- GI50 (BT-549): 11.8 nM (active)
- GI50 (MCF7): < 10 nM (active)
- GI50 (M14): < 10 nM (active)

SMILES: C[C@H]1CCC/C=C/[C@@H]2C[C@H](O)C[C@H]2[C@H](O)/C=C/C(=O)O1 [BREFELDIN A]
- GI50 (DLD-1): 13.4 nM (active)
- GI50 (SK-MEL-28): 19.2 nM (active) and < 19.9 nM (active)
- GI50 (SNB-75): < 10 nM (active) and 8.97 nM (active)
- GI50 (RXF 393): 14.4 nM (active) and 13.4 nM (active)
- GI50 (HOP-92): 80 nM (active) and 41.7 nM (active)
- GI50 (U-251): 68.1 nM (active) and 36.7 nM (active)
- GI50 (SW-620): 32.7 nM (active) and < 17.4 nM (active)
- GI50 (Hs-578T): < 10 nM (active) and 10.1 nM (active)
- GI50 (NCI-H226): 19.9 nM (active) and 25.8 nM (active)
- GI50 (OVCAR-5): < 24 nM (active) and 44 nM (active)
- GI50 (T47D): 124 nM (active) and 71.5 nM (active)
- GI50 (NCI-H23): 12.5 nM (active) and 25.1 nM (active)
- GI50 (MCF7): < 16.4 nM (active) and 26.3 nM (active)
- GI50 (M14): < 16.1 nM (active) and 26.1 nM (active)

Reference: ChEMBL document CHEMBL1201862, “PubChem BioAssay data set” (2004)
